Data on two compounds can be found in patent US20220356163A1, “SMALL MOLECULE INHIBITORS OF Id PROTEINS” (MEMORIAL SLOAN KETTERING CANCER CENTER, priority 2019, published 2022).

Entries after “also recorded” stand apart in the source; their conditions may differ. Where two headings read alike, the source gives them in different places.

Assay [1] deals with T1, NanoLuc-ID1 (Homo sapiens, UniProt P41134).
T1 construct: expressed in transfected cells; host or cells: 293T cells, pcDNA3.1, digitonin-permeabilized
The experiment in a line: NanoBRET target engagement assay in digitonin-permeabilized 293T cells. The following applies: 2 μM tracer, 0-60 μM competitor, 50 μg/mL digitonin. In kind it is cell-based. Here is the method: NanoBRET™ target engagement assay. A N-terminal NanoLuc® luciferase ID1 fusion protein was synthesized by Genewiz (South Plainfield, N.J., USA) into the pUC57 backbone and then cloned into the pcDNA3.1 plasmid with EcoRI-HF and XbaI (both enzymes from New England Biolabs, Ipswich, Mass., USA). The assay was performed essentially as described in the NanoBRET™ TE Intracellular BET BRD Assay kit manual (Promega Corporation, Madison, Wis., USA). Briefly, cells were transfected and after 24 hours were plated onto flat bottom, non-binding surface, white, polystyrene 96-well plates (Corning Incorporated, Kennebunk, Me., USA). The AGX51 tracer was then added ([…]), followed by digitonin (Sigma, St. Louis, Mo., USA) to permeabilize the cells ([…]). The NanoBRET™ Nano-Glo® Substrate (Promega) was then added and readings taken using a GloMax Discover System instrument (Promega). For the competition assays, cells were treated with 2 μM of AGX51 tracer and 0-60 μM of AGX-A or AGX51.
This assay is based on the NanoBRET™ Target Engagement Intracellular BET BRD Assay (Promega). A construct expressing a NanoLuc® luciferase ID1 fusion protein and an AGX51-fluorescent tracer was generated (FIG. 10A). […]
A general note: BRET reads energy transfer from a luciferase to a nearby fluorophore.

The test system of assay [2] is choroidal neovascularization. The experiment in a line: Laser-induced choroidal neovascularization (CNV) model of AMD. In kind it is in vivo, mouse. The source says: Mouse mode/s of ocular neovascularization. CNV was induced as previously described. Tobe et al., Am. J. Pathol., 153, 1641-1646 (1998). Briefly, 4-6 week-old female Id1^−/− or Id3^−/− mice and littermate control Id1^+/+ or Id3^+/+ mice (all in C57BL/6 background) had laser-induced rupture of Bruch's membrane at three locations in each eye and after 14 days mice were euthanized, eyes were removed, and choroidal flat mounts were stained with FITC-labeled Griffonia simplicifolia lectin (Vector Laboratories, Burlingame, Calif.) which selectively stains vascular cells (n=12 mice per group). Flat mounts were examined by fluorescence microscopy and the area of each CNV was measured by image analysis with Image-Pro Plus software (Media Cybernetics, Silver Spring, Md.) by an observer masked with respect to experimental groups. In other experiments, wild type 4-6 week-old, female, C57BL/6 mice had rupture of Bruch's membrane in each eye followed by intravitreal injection of 1-30 μg of AGX51 (racemic, E1 or E2) or vehicle in one eye immediately and after 7 days or mice were given twice daily i.p. injections of 500 μg of AGX51 or vehicle for 14 days (n=7-10 mice per group). The area of CNV was measured 14 days after rupture of Bruch's membrane. For Aflibercept and AGX-A treatment experiments, rupture of Bruch's membrane was carried out and then mice were treated with 40 μg of Aflibercept, 10 μg of AGX51E2, 1-5 μg of AGX51, 1-5 μg of AGX-A, DMSO or combinations. The mice were 4-6 week-old female C57BL/6. After 14 days, the mice were euthanized and CNV was measured as described above.

The subject of assay [3] is HCT116 cells. The experiment in a line: IC50 in HCT116 cells (FIG. 7C). In kind it is cell-based.
In assay [4] the test system is TFK-1. The experiment in a line: Cholangiocarcinoma cell viability, TFK-1. In kind it is cell-based. Here is the method: (§1) Cell viability assays. Cell lines were seeded in a 96 well plate (5000 cells per well). After overnight incubation, cells were treated with AGX51 and incubated for 24 hours then MTT reagent (5 mg/mL) was added per well and the cells were incubated for four hours. Following incubation, media was aspirated and 200 μL DMSO was added per well. Absorbance was then measured at 570 nm using a plate reader (Synergy 2, BioTek). Cell growth profiles were determined by seeding 38,000 cells in a 24-well plate, in triplicate for each time point, and counting the cells on days 1, 3 and 5 after seeding, using trypan blue exclusion of dead cells.
(§2) The effects of AGX51 and AGX-A on cholangiocarcinoma cell viability were assessed for the six different cholangiocarcinoma cell lines. The measured IC50 values (in μM) from these studies are provided in Table 2 below, along with the ratio of the AGX51 IC50 to the AGX-A IC50 to aid in comparison.

Assay [5] concerns SNU-1196. The experiment in a line: Cholangiocarcinoma cell viability, SNU-1196. It is filed as cell-based. How it is done: as §1, §2
Assay [6] deals with HUCC-T1. The experiment in a line: Cholangiocarcinoma cell viability, HUCC-T1. In kind it is cell-based. How it is done:
as §1, §2

For assay [7], the system named is EGI-1. The experiment in a line: Cholangiocarcinoma cell viability, EGI-1. In kind it is cell-based. Here is the method: as §1, §2
Assay [8] has as its system WITT. The experiment in a line: Cholangiocarcinoma cell viability, WITT. In kind it is cell-based. Here is the method: as §1, §2

T1 sequence (P41134 whole entry): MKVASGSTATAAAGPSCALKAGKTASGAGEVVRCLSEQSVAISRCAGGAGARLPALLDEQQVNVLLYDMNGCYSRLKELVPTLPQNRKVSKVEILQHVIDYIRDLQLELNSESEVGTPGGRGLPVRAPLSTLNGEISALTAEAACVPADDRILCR

Consider `CCC(=O)N(CCC(c1ccc2c(c1)OCO2)c1ccccc1OC)Cc1ccccc1` (racemic) [AGX51, N-(3-(benzo[d][1,3]dioxol-5-yl)-3-(2-methoxyphenyl)propyl)-N-benzylpropionamide], for which the “competition with AGX51 tracer” value in assay [1] is recorded as “could be competed with AGX51”. The “CNV area relative to vehicle control” value in assay [2] (i.p. 50 μL of 10 mg/mL bid, day 14) is recorded as “reduced CNV area significantly”. Besides, the CNV area result in assay [2] (intravitreal 5 μg, days 1 and 7, p<0.05) was “effective at significantly reducing CNV”. For the same compound, in assay [2] (intravitreal injection), the “Id1 immunofluorescence in CNV regions” value was “no Id1 positive cells”. The “CNV area relative to vehicle” value is “significantly reduced CNV” in assay [2] (twice daily i.p. injections (~30 mg/kg), p<0.05); “significantly suppressed CNV” in assay [2] (two intravitreal injections of 10 μg (2 h and 7 days), day 14, p<0.05). The IC50 (usually the concentration needed to halve the response being measured) is 22.3 µM in assay [3] (Homo sapiens, HCT-116, HCT116 cells, FIG. 7C); 15.7 µM in assay [4] (TFK-1); 28.8 µM in assay [5]; 14.8 µM in assay [6] (Homo sapiens, HuCCT-1); 15.7 µM in assay [7] (Homo sapiens); 33.2 µM in assay [8].

Consider `COc1ccccc1C(CCNCc1ccccc1)c1ccc(OC(C)C)cc1` (centres unmarked) [AGX-A, N-benzyl-3-(4-isopropoxyphenyl)-3-(2-methoxyphenyl)propan-1-anine], for which the “competition with AGX51 tracer” value in assay [1] is “more efficiently; also recorded: exhibiting greater activity than AGX51; also recorded: worked at lower concentrations than AGX51”. Further, in assay [2] (intravitreal 1 μg dose), the “CNV area, AGX-A vs AGX51” value was “performed better than AGX51”. For the same compound, the “fold reduction in IC50 values vs AGX51” value in assay [3] (cell-based assays, FIGS. 7C-7D (HCT116 and 4T1)) is listed as around 4 fold. In assay [4] (24 hour period, FIG. 23), the “dose-dependent effect on TFK1 cell viability vs AGX51” value was “superior anti-cancer potency”. Moreover, the “(AGX51 IC50)/(AGX-A IC50)” value in assay [4] (TFK-1) amounted to 1.33; in assay [5], 1.94; in assay [6], 3.33; in assay [7], 3.49; in assay [8] it was 6.25. The concentration for half-maximal inhibition (IC50) in assay [4] (TFK-1) turned out to be 11.8 µM; in assay [5], 14.8 µM; in assay [6] it was 4.44 µM; in assay [7] it was 4.49 µM; in assay [8] it was 5.32 µM.
